Experimental data taken from article PMC4546618, “Casitas B-Lineage Lymphoma RING Domain Inhibitors Protect Mice against High-Fat Diet-Induced Obesity and Insulin Resistance” (PLoS ONE, 2015).
Where two headings read alike, the source gives them in different places. Where a SMILES comes first, the peptide text is derived from it. [ ]: non-standard residue; d: D form. Pro(trans-4-F) = O=C(O)[C@@H]1C[C@@H](F)CN1; Phe(3-F) = N[C@@H](Cc1cccc(F)c1)C(=O)O; Phe(2-F) = N[C@@H](Cc1ccccc1F)C(=O)O; Phg = N[C@H](C(=O)O)c1ccccc1; Thz = O=C(O)[C@@H]1CSCN1

Key:
Cbl (RING) protein = molecular target: T1, Cbl (RING) protein (Homo sapiens, UniProt P22681); experiment: Fluorescence polarization (FP) assay, competition with FITC-βA-PFKPP-NH2 probe; assay type: binding; details: probe FITC-βA-PFKPP-NH2 100 nmol/L, Cbl (RING) protein 3 μmol/L, PBS pH 7.4
T1 construct: including the linker and RING domain (codon 358–457); GST (Glutathione S-Transferase); made in house
T1 sequence (P22681 358-457): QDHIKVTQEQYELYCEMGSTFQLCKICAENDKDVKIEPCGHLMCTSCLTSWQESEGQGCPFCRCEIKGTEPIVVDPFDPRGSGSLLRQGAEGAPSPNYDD
Method: Peptides and peptide mimetics were purchased from MitenChem (China) with a purity ≥ 98%. Concentrations values of reconstituted peptides were determined by amino acid analysis at the protein core facility (Chengdu Medical College). The recombinant Cbl protein was produced by the Chengdu Medical College Protein Core Facility and was described previously. The c-Cbl (RING) protein, including the linker and RING domain (codon 358–457), was tagged with Glutathione S-Transferase (GST) and purified with GSH-Sepharose (Shanghai Biopharma).
The FP assay was developed and validated previously. Briefly, fluorescein-labeled probe (FITC-βA-PFKPP-NH2, 100 nmol/L) and Cbl (RING) protein (3 μmol/L) were mixed and diluted to the final concentration using 0.01% Triton X-100 in PBS (pH = 7.4). Then, 19 μl of this master mix was loaded to each reaction well. The peptides or peptide mimetics were then loaded to the designated wells (1 μl, 10 μmol/L– 0.078 μmol/L, half-fold dilutions). The total fluorescence and polarization values were measured at an excitation wavelength of 485 nm and an emission wavelength of 538 nm using a ZS-2 plate reader. The data was fitted, and the ΔmP, Kd, and Ki values were estimated, using SigmaPlot 11.0.

mice = experiment: Acute toxicity in mice; assay type: in vivo; details: up to 15 mg/kg i.p.; for signs of acute toxicity: 72 hours; for death of animals: another 14 days following the initial examination; for H&E staining of livers, spleens and kidneys: end of experiment
Method: (§1) All experiments were approved by the institutional Animal Care and Use Committee (Chengdu Medical College, China). All experiments were carried out in 10-week-old male mice maintained on the C57BL/6 background. All the animals were kept on a 12-h light/dark cycle with free access to food and water.
The control group (n = 10) received vehicle only. Eight groups (10 mice each) were treated with increasing doses of either peptide 1, 3, 10, 34, 2, 60, 49, and 51 up to 15 mg/kg by i.p. Number of death, sedation, spontaneous motor activity, alertness, ptosis, dyspnea, convulsion, diarrhea, urination, postural reflex, piloerection, nociception, grooming, vocalization, rearing, climbing and aggression were observed every 12 hours for 72 h. Animals were maintained for another 14 days after the initial examination. We planned to sacrifice the animals if they show severe signs of pain or distress, a body weight loss in excess of 15% of its body weight, or a deterioration of the body condition score to BC2(-) or below. However, none of the animals qualified for the mentioned the symptoms. No animals died during the whole study. At the end of the experiment, animals were euthanized by CO2 asphyxiation followed by cervical dislocation, the livers, spleens and kidneys were collected and formalin-fixed paraffin-embedded for H&E staining.

[1] = Pharmacokinetic studies, plasma concentration after i.p. injection; assay type: in vivo; details: mice, i.p. 4 mg/kg; for Cmax: male, C57BL/6, mouse, plasma, ip, read-out: maximum concentration in plasma; for plasma concentrations compared to the parental peptides 1 and 2: at each time point after 1 hour
Method: as §1
Peptides (1, 3, 10, 34, 2, 60, 49, and 51) were dissolved in sterile aqueous 5% dextrose and administered to mice by i.p. injection (4 mg/kg). Blood samples were collected from the tail tip at 0, 0.5, 1, 6, 12, 18, 24 and 48 hours. Plasma samples were harvested by centrifugation and stored at -80°C until assayed. Peptide concentrations in plasma were determined by Reversed-Phase High-Performance Liquid Chromatography (RP-HPLC) with electrospray ionization mass spectrometric ([…]) detection. Samples were assayed with a series of 8 calibration standards of peptide in plasma at concentrations ranging from 50 to 6000 μg/L. Peptide concentrations were determined by comparing to the standards.

mice fed a high-fat diet [2] = experiment: High-fat diet-induced obesity: body weight, food intake, body composition, adipocyte volume; assay type: in vivo; details: daily i.p. 5 mg/kg; for body weight gain vs vehicle, parental and negative control peptide groups: 12-week feeding period; for percentage of perigonadal fat mass / adipocyte volume: 12 weeks; for percentage of perigonadal fat mass: NMR, vehicle 8 ± 0.8%; for adipocyte volume: adipocytes from epididymal fat pad, vehicle 510 ± 42 pL
Method: as §1
(§2) Animals (n = 90) were randomly assigned to one of the nine groups (Table 1). Animals were fed ad libitum with a high-fat diet (60% of caloric intake from fat (70% saturated fat), 20% from carbohydrates, and 20% from protein) before experiments and for another 12 weeks during the experiments. Food intake was measured manually on a daily basis. Eight groups of animals were treated with indicated peptides with a daily i.p. injection at 5 mg/kg and one group of animals were treated with vehicle.
Body composition was measured using nuclear magnetic resonance (NMR) technology at Chengdu College core facility. Epididymal fat pads were excised and adipocytes were isolated. Cells were then fixed using 2% OsO4 in PBS overnight at 37°C [2].

mice fed a high-fat diet [3] = experiment: Glucose tolerance test after 12 weeks of treatment on high-fat diet; assay type: in vivo; details: overnight fasted mice, 2 g/kg glucose i.p., after 12 weeks daily i.p. 5 mg/kg on high-fat diet
Method: as §1, §2
After receiving 12 weeks of treatment as described above, glucose tolerance tests were performed in overnight fasted mice. Each mouse received a 2 g/kg glucose through i.p. Blood samples were obtained from the tail tip at 0, 30, 60, 90, and 120 min. Insulin concentrations were measured using mouse insulin Elisa kits (ChrystalChem) using mouse standards. Glucose levels were measured using a glucometer (Roche).

mice fed a high-fat diet [4] = experiment: Indirect energy expenditure and physical activity measurement; assay type: in vivo; details: after 12 weeks daily i.p. 5 mg/kg on high-fat diet; for Oxygen consumption VO2: vehicle 4.15 ± 0.55; for Ambulatory day activity / Ambulatory night activity: photobeam break counts; for Ambulatory day activity: vehicle 2,069 ± 705; for Ambulatory night activity: vehicle 6,289 ± 1,216
Method: as §1, §2
After receiving 12 weeks of treatment as described above, rates of oxygen consumption (VO2) was measured using a four-chamber indirect calorimeter (Langguan, China, air flow of 0.5 l/min). A total of 2-hour measurement for each animal was conducted at 15-minuate intervals under room temperature (22°C). Ambulatory activity was estimated by counting the number of photobeam breaks in a three-sensor chamber instrument (Rui Pharm, China), and the cumulative ambulatory activity counts were recorded every hour. A total of 12 h-day time and 12 h-night activity were recorded for each animal.

Row | Compound | Ki (Cbl (RING) protein) [µM] | signs of acute toxicity (mice) | death of animals (mice) | H&E staining of livers, spleens and kidneys (mice) | Cmax ([1]; observed in 60 min) [ng/mL] | plasma concentrations compared to the parental peptides 1 and 2 [1] | body weight gain vs vehicle, parental and negative control peptide groups (mice fed a high-fat diet [2]) | percentage of perigonadal fat mass (mice fed a high-fat diet [2]) [%] | adipocyte volume (mice fed a high-fat diet [2]) [pL] | blood insulin levels compared to the vehicle group (mice fed a high-fat diet [3]) | glucose tolerance compared to the vehicle group (mice fed a high-fat diet [3]) | Oxygen consumption VO2 (mice fed a high-fat diet [4]) [mL/g/h] | Ambulatory day activity (mice fed a high-fat diet [4]) | Ambulatory night activity (mice fed a high-fat diet [4]) | Cmax ([1]; observed in 30 min) [ng/mL]
1 | CC(=O)N1CCC[C@H]1C(=O)N[C@@H](Cc1cccc(F)c1)C(=O)N[C@@H](CCCCN)C(=O)N1CCC[C@H]1C(=O)N1CCC[C@H]1C(N)=O [Peptide 10, Ac-P(h)KPP-NH2] (Ac-P[Phe(3-F)]KPP-NH2) | 1.8 ± 0.8 | did not show vital signs of acute toxicity | None of the animals died | does not show any sign of injuries | 4520 | greater plasma concentrations | significant differences in body weight gain | 3.5 ± 0.5 | 295 ± 31 | significant reduction in blood insulin levels | better glucose tolerance | 5.92 ± 0.36 | 3,512 ± 923 per 12 h | 12,896 ± 2,469 per 12 h | –
2 | CC(=O)N1CCC[C@H]1C(=O)N[C@H](C(=O)N[C@@H](CCCCN)C(=O)N1CCC[C@H]1C(=O)N1CCC[C@H]1C(N)=O)c1ccccc1 [Peptide 3, Ac-P(a)KPP-NH2] (Ac-P[Phg]KPP-NH2) | > 500 | did not show vital signs of acute toxicity | None of the animals died | does not show any sign of injuries | 4020 | greater plasma concentrations | – | 7.1 ± 0.4 | 505 ± 34 | – | not statistically significant | 3.78 ± 0.29 | 2,158 ± 763 per 12 h | 6,058 ± 1,298 per 12 h | –
3 | CC(=O)N[C@@H](CCCCN)C(=O)N1C[C@H](F)C[C@H]1C(=O)N[C@@H](C)C(=O)N[C@H](C(=O)N[C@@H](CCCCN)C(N)=O)[C@@H](C)O [Peptide 51, Ac-K(t)ATK-NH2] (Ac-K[Pro(trans-4-F)]ATK-NH2) | 3.8 ± 1.1 | did not show vital signs of acute toxicity | None of the animals died | does not show any sign of injuries | 4620 | greater plasma concentrations | significant differences in body weight gain | 4.0 ± 0.8 | 250 ± 40 | significant reduction in blood insulin levels | better glucose tolerance | 5.99 ± 0.95 | 4,953 ± 1,014 per 12 h | 19,251 ± 3,058 per 12 h | –
4 | CC(=O)N[C@@H](CCCCN)C(=O)N1CSC[C@H]1C(=O)N[C@@H](C)C(=O)N[C@H](C(=O)N[C@@H](CCCCN)C(N)=O)[C@@H](C)O [Peptide 49, Ac-K(r)ATK-NH2] (Ac-K[Thz]ATK-NH2) | 2.9 ± 1.2 | did not show vital signs of acute toxicity | None of the animals died | does not show any sign of injuries | 4680 | greater plasma concentrations | significant differences in body weight gain | 3.9 ± 0.4 | 230 ± 38 | significant reduction in blood insulin levels | better glucose tolerance | 6.12 ± 0.58 | 4,012 ±1,207 per 12 h | 20,126 ± 2,914 per 12 h | –
5 | Ac-KPATK-NH2 [Peptide 2, Ac-KPATK-NH2] | 4.7 ± 1.2 | did not show vital signs of acute toxicity | None of the animals died | does not show any sign of injuries | – | – | – | 6.7 ± 0.5 | 440 ± 58 | – | – | 4.22 ± 0.42 | 2,342 ±1,002 per 12 h | 6,721 ± 1,032 per 12 h | 3370
6 | CC(=O)N[C@@H](CCCCN)C(=O)N1C[C@H](F)C[C@H]1C(=O)N[C@@H](C)C(=O)N[C@@H](CC(C)C)C(=O)N[C@@H](CCCCN)C(N)=O [Peptide 60, Ac-K(t)ALK-NH2] (Ac-K[Pro(trans-4-F)]ALK-NH2) | 228 ± 20.2 | did not show vital signs of acute toxicity | None of the animals died | does not show any sign of injuries | 4280 | greater plasma concentrations | – | 7.8 ± 0.7 | 520 ± 26 | – | – | 4.16 ± 0.29 | 2,025 ± 945 per 12 h | 5,993 ± 1,278 per 12 h | –
7 | CC(=O)N1CCC[C@H]1C(=O)N[C@@H](Cc1ccccc1F)C(=O)N[C@@H](CCCCN)C(=O)N1CCC[C@H]1C(=O)N1CCC[C@H]1C(N)=O [Peptide 9, Ac-P(g)KPP-NH2] (Ac-P[Phe(2-F)]KPP-NH2) | 3.5 ± 0.6 | – | – | – | – | – | – | – | – | – | – | – | – | – | –
8 | CC(=O)N[C@@H](CCCCN)C(=O)N1CSC[C@H]1C(=O)N[C@H](C(=O)N[C@H](C(=O)N[C@@H](CCCCN)C(N)=O)[C@@H](C)O)C(C)C [Peptide 53, Ac-K(r)VTK-NH2] (Ac-K[Thz]VTK-NH2) | 91.2 ± 6.6 | – | – | – | – | – | – | – | – | – | – | – | – | – | –
